Tests used:
[1] = Exposure to 80% relative humidity for 1 week (XRD, TGA, KF); type: physicochemical; details: for crystal structure of resulting sample (XRD): 80% relative humidity for 1 week
Description: (§1) X-ray reflections reported herein were determined by the powder diffraction technique (PXRD). X-ray powder diffraction analysis was performed using a Scintag powder diffractometer with variable goniometer, a Cu source, and a solid state detector. A standard round aluminum sample holder with zero background quartz plate was used. Samples were scanned from 2° to 40° 2θ at 3° per minute. Reflections are reported as peak maxima in the Intensity vs. 2θ plots, and are subject to the normal experimental error (uncertainty) of ±0.2°. Wet samples were promptly analyzed “as is,” i.e., without drying or grinding prior to the analysis.
Thermogravimetric analysis (TGA) was performed using a Mettler TG50 thermobalance. Samples of 7 to 15 milligrams were analyzed at a heating rate of 10° C. per minute in the temperature range between about 25° C. and about 200° C.
The water content (wt-% water) of crystalline forms of gatifloxacin reported herein was determined by the Karl-Fisher method. Water content of solutions was likewise determined by the Karl-Fisher method.
200 mg of gatifloxacin form J were put in 80% relative humidity for 1 week. The resulting sample was analyzed by XRD, TGA and KF.
200 mg of gatifloxacin omega form were put in 80% relative humidity for 1 week, and then analyzed by XRD and by TGA.

[2] = Interconversion of crystalline forms by thermal treatment (XRD before and after heating); type: physicochemical
Description: as §1
Approximately 200 mg of several of the novel crystalline forms of the present invention, prepared as described in the foregoing examples, and several of the prior-art crystalline forms were subjected to various thermal treatments. The treatments and the results are described in Table II below
200 mg of gatifloxacin form E1 were heated to 100° C. for 1 hour. The XRD of the resulting sample was that of the omega form.

[3] = as reported in U.S. Pat. No. 5,880,283; cited from earlier work
[4] = Stability of E1 in formulations; type: physicochemical; details: in formulations at 30° C.
From the text: The pharmaceutical composition can be in the form of a solid oral dosage form (e.g., compressed tablets or capsules), or it can be in the form of a liquid oral dosage form (e.g., a solution or oral suspension).

[5] = among forms of U.S. Pat. No. 6,413,969, cited from earlier work
[6] = Stability of E1 dihydrate against transformation to sesquihydrate on storage (PXRD); type: physicochemical
Description: A suitable method to determine the presence of gatifloxacin sesquihydrate in gatifloxacin form E1 is x-ray powder diffraction. Determination of presence of sesquihydrate in form E1 is feasible in the region 7° to 9° 2θ, where a peak of sesquihydrate appears at about 7.8° 2θ.
Moreover, the dihydrate of the present invention is stable against transformation to the sesquihydrate when exposed at ambient temperature to 60% relative humidity for one week.
The E1 dihydrate of the present invention is stable against transformation to sesquihydrate when stored at 30° C. and 60% relative humidity for 3 months.

[7] = after 80% relative humidity for 1 week

For COc1c(N2CCNC(C)C2)c(F)cc2c(=O)c(C(=O)O)cn(C3CC3)c12 (stereo not shown) [omega form, gatifloxacin], the “crystal structure of resulting sample (XRD)” value [1] was “sesquihydrate” and the “LOD of resulting sample (TGA)” value [1, 7] was 7.7%.

For COc1c(N2CCNC(C)C2)c(F)cc2c(=O)c(C(=O)O)cn(C3CC3)c12 (stereo not shown) [T1RP, gatifloxacin], the “form Obtained after heating (XRD)” value ([2]; 120° C., 1 h) was “Hemihydrate”.

In the case of COc1c(N2CCNC(C)C2)c(F)cc2c(=O)c(C(=O)O)cn(C3CC3)c12 (stereo not shown) [hemihydrate, gatifloxacin], the “form Obtained after heating (XRD)” value ([2]; 120° C., 1 h) is given as “T2RP” and the hygroscopicity [3] is given as “hygroscopic”.

For COc1c(N2CCNC(C)C2)c(F)cc2c(=O)c(C(=O)O)cn(C3CC3)c12 (stereo not shown) [form J, gatifloxacin], the “form Obtained after heating (XRD)” value ([2]; 120° C., 1 h) was “omega”, the “crystal structure of resulting sample (XRD)” value [1] was “sesquihydrate” and the “KF water content of resulting sample” value [1, 7] was 6.6%. For the same compound, the “LOD of resulting sample (TGA)” value [1, 7] was 7.8%.

With COc1c(N2CCNC(C)C2)c(F)cc2c(=O)c(C(=O)O)cn(C3CC3)c12 (stereo not shown) [form E1, gatifloxacin] the “time stable in formulations” value [4] was “at least 3 months” and the “form Obtained after heating (XRD)” value ([2]; 100° C. for 1 hour) was “omega form”.

In the case of COc1c(N2CCNC(C)C2)c(F)cc2c(=O)c(C(=O)O)cn(C3CC3)c12 (stereo not shown) [sesquihydrate, gatifloxacin], the “form Obtained after heating (XRD)” value ([2]; 120° C., 1 h) is listed as “T2RP + omega”, the hygroscopicity [3] is listed as “less hygroscopic” and the stability in manufacturing [3] is listed as “more stable in manufacturing”.

In the case of COc1c(N2CCNC(C)C2)c(F)cc2c(=O)c(C(=O)O)cn(C3CC3)c12 (stereo not shown) [pentahydrate, gatifloxacin], the thermodynamic stability [5] is listed as “most thermodynamically stable form” and the aqueous solubility ([5]; room temperature) is listed as “lowest aqueous solubility”.

With COc1c(N2CCNC(C)C2)c(F)cc2c(=O)c(C(=O)O)cn(C3CC3)c12 (stereo not shown) [E1 dihydrate, gatifloxacin] the “stability against transformation to the sesquihydrate” value ([6]; ambient temperature, 60% relative humidity, one week, PXRD) was “stable” and the “stability against transformation to sesquihydrate” value ([6]; stored at 30° C. and 60% relative humidity for 3 months) was “stable”.

With COc1c(N2CCNC(C)C2)c(F)cc2c(=O)c(C(=O)O)cn(C3CC3)c12 (stereo not shown) [form G, gatifloxacin] the “form Obtained after heating (XRD)” value ([2]; 120° C., 1 h) was “Omega^1”.
